Laboratory results from PubChem BioAssay (NCI).
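Abbreviation: GI50, concentration required for 50% inhibition of growth. Definition used: TGI = concentration required for complete inhibition of growth.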

How the values were obtained:
Assay in all cases: NCI anticancer screen, dose series, 384-well format
HS 578T breast = tested on: HS 578T breast
TK-10 renal = tested on: TK-10 renal
EKVX NSCLC = tested on: EKVX NSCLC
A549 NSCLC = tested on: A549 NSCLC
786-0 renal = tested on: 786-0 renal
M14 melanoma = tested on: M14 melanoma
HOP-92 NSCLC = tested on: HOP-92 NSCLC
HOP-62 NSCLC = tested on: HOP-62 NSCLC
K-562 leukemia = tested on: K-562 leukemia
MDA-MB-231 breast = tested on: MDA-MB-231 breast
NCI-H460 NSCLC = tested on: NCI-H460 NSCLC
CCRF-CEM leukemia = tested on: CCRF-CEM leukemia
NCI-H322M lung = tested on: NCI-H322M lung

Work on `C[C@@H](C(=O)Nc1ccc(Cl)cc1)C1CCC(c2ccnc3ccc(F)cc23)CC1` (stereo partly specified) yielded a GI50 (HS 578T breast) of 12.7 µM, a TGI (HS 578T breast) of 27.4 µM and a GI50 (TK-10 renal) of 11.3 µM. The TGI (TK-10 renal) was 86.2 µM, the GI50 (EKVX NSCLC) was 4.09 µM and the TGI (EKVX NSCLC) was 18.7 µM. For the same compound, the GI50 (A549 NSCLC) was 6.9 µM, the TGI (A549 NSCLC) was 66.5 µM and the GI50 ([…]-0 renal) was 10.8 µM. It also gave a TGI (786-0 renal) of 27 µM, a GI50 (M14 melanoma) of 13 µM and a TGI (M14 melanoma) of 40.8 µM. The GI50 (HOP-92 NSCLC) was 8.04 µM, the TGI (HOP-92 NSCLC) was 29.4 µM and the GI50 (HOP-62 NSCLC) was 12.8 µM. For the same compound, the TGI (HOP-62 NSCLC) was 29.5 µM, the GI50 (K-562 leukemia) was 3.38 µM and the TGI (K-562 leukemia) was 13.7 µM. It also gave a GI50 (MDA-MB-231 breast) of 13.3 µM, a TGI (MDA-MB-231 breast) of 65.1 µM and a GI50 (NCI-H460 NSCLC) of 2.85 µM. It also gave a TGI (NCI-H460 NSCLC) of 8.81 µM, a GI50 (CCRF-CEM leukemia) of 2.64 µM and a TGI (CCRF-CEM leukemia) of 7.41 µM. The GI50 (NCI-H322M lung) was 17.7 µM and the TGI (NCI-H322M lung) was 78.2 µM.
